Data published in US12539292B2, “BRM targeting compounds and associated methods of use” (Arvinas Operations, Inc., priority 2018, dated 2026).
Like-named read-outs stand apart in the source and are kept apart here.

Biological target: T1, BRM (Homo sapiens, UniProt P51531)
T1 construct: In-Cell Western Screen of BRM Degradation in SW1573 Cells; endogenous in cells; host or cells: SW1573
Assay: In-cell Western screen of BRM degradation in SW1573 cells (Dmax and DC50)
Assay type: cell-based
Procedure, shortened: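 Overnight compound treatment (18-20 h, final DMSO 0.1%) of SW1573 cells in DMEM with 10% FBS precedes fixation and in-cell Western staining with 800/680 nm dye-labelled secondaries. Plate images give DC50 and maximal degradation.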

[1] = BRM degradation, SW1573 cells, read-out: DC50
[2] = BRM degradation, SW1573 cells, when tested at the top concentration of between 0.3 and 10 μM, read-out: Dmax (%) (% degraded)
[3] = degradation of BRM, read-out: BRM DC50
[4] = BRM degradation, read-out: BRM DC50
[5] = BRM degradation, SW1573 cells, Table 2D, read-out: *DC50
[6] = BRM degradation, SW1573 cells, tested at the top concentration of between 0.3 and 10 μM, read-out: Dmax (%) (% degraded)

T1 sequence (P51531 whole entry): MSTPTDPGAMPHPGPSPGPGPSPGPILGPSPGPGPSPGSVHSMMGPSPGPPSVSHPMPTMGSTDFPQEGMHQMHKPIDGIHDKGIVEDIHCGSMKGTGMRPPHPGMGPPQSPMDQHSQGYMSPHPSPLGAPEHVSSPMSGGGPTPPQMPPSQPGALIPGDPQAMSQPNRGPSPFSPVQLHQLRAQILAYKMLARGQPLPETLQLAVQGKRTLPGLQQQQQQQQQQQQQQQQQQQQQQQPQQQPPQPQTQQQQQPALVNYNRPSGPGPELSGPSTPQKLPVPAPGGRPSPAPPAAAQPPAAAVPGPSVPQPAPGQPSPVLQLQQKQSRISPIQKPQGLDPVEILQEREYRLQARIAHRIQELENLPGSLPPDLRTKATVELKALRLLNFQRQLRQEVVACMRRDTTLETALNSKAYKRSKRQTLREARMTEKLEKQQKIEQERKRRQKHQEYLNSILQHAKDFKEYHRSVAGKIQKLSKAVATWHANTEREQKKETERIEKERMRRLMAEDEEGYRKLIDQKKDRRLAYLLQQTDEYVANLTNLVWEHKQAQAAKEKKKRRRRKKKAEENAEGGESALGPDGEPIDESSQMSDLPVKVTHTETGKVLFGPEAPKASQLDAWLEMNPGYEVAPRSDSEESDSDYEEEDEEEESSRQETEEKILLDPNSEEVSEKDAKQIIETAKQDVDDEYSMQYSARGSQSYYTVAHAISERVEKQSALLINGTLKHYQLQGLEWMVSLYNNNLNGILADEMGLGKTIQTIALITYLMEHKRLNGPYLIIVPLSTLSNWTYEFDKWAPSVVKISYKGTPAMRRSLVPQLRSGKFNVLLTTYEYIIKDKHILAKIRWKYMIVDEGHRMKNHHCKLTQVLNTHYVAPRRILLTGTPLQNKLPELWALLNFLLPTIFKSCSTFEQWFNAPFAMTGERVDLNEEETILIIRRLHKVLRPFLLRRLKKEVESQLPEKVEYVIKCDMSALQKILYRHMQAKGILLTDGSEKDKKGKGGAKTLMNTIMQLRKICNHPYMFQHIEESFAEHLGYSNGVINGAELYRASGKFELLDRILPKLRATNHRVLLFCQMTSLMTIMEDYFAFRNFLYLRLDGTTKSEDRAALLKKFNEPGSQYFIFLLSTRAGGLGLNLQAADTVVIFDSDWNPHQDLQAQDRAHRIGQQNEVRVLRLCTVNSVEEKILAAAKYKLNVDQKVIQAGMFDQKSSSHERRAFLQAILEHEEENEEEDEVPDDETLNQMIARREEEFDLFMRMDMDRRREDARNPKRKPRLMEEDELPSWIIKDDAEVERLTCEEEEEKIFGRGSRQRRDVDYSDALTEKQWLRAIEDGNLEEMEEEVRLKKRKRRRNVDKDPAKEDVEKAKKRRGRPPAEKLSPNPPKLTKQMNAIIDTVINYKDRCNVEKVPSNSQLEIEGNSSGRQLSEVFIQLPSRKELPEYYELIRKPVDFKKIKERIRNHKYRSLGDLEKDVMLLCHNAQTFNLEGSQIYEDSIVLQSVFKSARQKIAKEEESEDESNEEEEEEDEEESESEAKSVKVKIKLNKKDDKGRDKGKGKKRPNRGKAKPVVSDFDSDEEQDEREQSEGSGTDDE

SMILES: Cc1ncsc1-c1ccc([C@H](C)NC(=O)[C@@H]2C[C@@H](O)CN2C(=O)[C@@H](c2cc(OCCN3CCC(O[C@H]4C[C@H](Oc5cc(N6C7CCC6CN(c6cc(-c8ccccc8)nnc6N)C7)ccn5)C4)CC3)no2)C(C)C)cc1 [compound 537, (2S,4R)-1-((2R)-2-(3-(2-(4-((1r,3R)-3-((4-(3-(3-amino-6-phenylpyridazin-4-yl)-3,8-diazabicyclo[3.2.1]octan-8-yl)pyridin-2-yl)oxy)cyclobutoxy)piperidin-1-yl)ethoxy)isoxazol-5-yl)-3-methylbutanoyl)-4-hydroxy-N-((S)-1-(4-(4-methylthiazol-5-yl)phenyl)ethyl)pyrrolidine-2-carboxamide]
- DC50 (BRM degradation, SW1573 cells, Table 2D): > 30 nM

SMILES: Cc1ncsc1-c1ccc([C@H](C)NC(=O)[C@@H]2C[C@@H](O)CN2C(=O)C(C(C)C)n2cc(OCCN3CCN(CCOc4cc(N5C6CCC5CN(c5cc(-c7ccccc7O)nnc5N)C6)ccn4)CC3)cn2)cc1 (stereo in doubt) [compound 38, (2S,4R)-1-[(2R)-2-[4-[2-(4-[2-[(4-[3-[3-amino-6-(2-hydroxyphenyl)pyridazin-4-yl]-3,8-diazabicyclo[3.2.1]octan-8-yl]pyridin-2-yl)oxy]ethyl]piperazin-1-yl)ethoxy]-1H-pyrazol-1-yl]-3-methylbutanoyl]-4-hydroxy-N-[(1S)-1-[4-(4-methyl-1,3-thiazol-5-yl)phenyl]ethyl]pyrrolidine-2-carboxamide]
- DC50 [1]: 10 to 30 nM
- Dmax [2]: > 75%

SMILES: Cc1ncsc1-c1ccc([C@@H](C)NC(=O)[C@@H]2C[C@@H](O)CN2C(=O)[C@@H](c2cc(OCCN3CCC(O[C@H]4C[C@H](Oc5cc(N6C7CCC6CN(c6cc(-c8ccccc8O)nnc6N)C7)ccn5)C4)CC3)no2)C(C)C)nn1 [compound 443, (2S,4R)-1-((2R)-2-(3-(2-(4-((1r,3R)-3-((4-(3-(3-amino-6-(2-hydroxyphenyl)pyridazin-4-yl)-3,8-diazabicyclo[3.2.1]octan-8-yl)pyridin-2-yl)oxy)cyclobutoxy)piperidin-1-yl)ethoxy)isoxazol-5-yl)-3-methylbutanoyl)-4-hydroxy-N-((R)-1-(6-(4-methylthiazol-5-yl)pyridazin-3-yl)ethyl)pyrrolidine-2-carboxamide]
- DC50 [3]: > 30 nM

SMILES: CC(C)[C@H](C(=O)N1C[C@H](O)C[C@H]1C(=O)NCc1ccc(C2(F)CC2)cc1)c1cc(OCCN2CCC(O[C@H]3C[C@H](Oc4cc(N5C6CCC5CN(c5cc(-c7ccccc7O)nnc5N)C6)ccn4)C3)CC2)no1 [compound 418, (2S,4R)-1-((2S)-2-(3-(2-(4-((1r,3S)-3-((4-(3-(3-amino-6-(2-hydroxyphenyl)pyridazin-4-yl)-3,8-diazabicyclo[3.2.1]octan-8-yl)pyridin-2-yl)oxy)cyclobutoxy)piperidin-1-yl)ethoxy)isoxazol-5-yl)-3-methylbutanoyl)-N-(4-(1-fluorocyclopropyl)benzyl)-4-hydroxypyrrolidine-2-carboxamide]
- DC50 [3]: > 30 nM

SMILES: Cc1ncsc1-c1ccc([C@H](C)NC(=O)[C@@H]2C[C@@H](O)CN2C(=O)[C@@H](c2cc(OCCC3CCN(C(=O)[C@H]4C[C@H](CN5CCC(n6cc(-c7cc(-c8ccccc8O)nnc7N)cn6)CC5)C4)CC3)no2)C(C)C)cc1 [compound 468, (2S,4R)-1-((R)-2-(3-(2-(1-((1r,3R)-3-((4-(4-(3-amino-6-(2-hydroxyphenyl)pyridazin-4-yl)-1H-pyrazol-1-yl)piperidin-1-yl)methyl)cyclobutane-1-carbonyl)piperidin-4-yl)ethoxy)isoxazol-5-yl)-3-methylbutanoyl)-4-hydroxy-N-((S)-1-(4-(4-methylthiazol-5-yl)phenyl)ethyl)pyrrolidine-2-carboxamide]
- DC50 (target protein degradation, read-out: BRM DC50): > 30 nM

SMILES: Cc1ncsc1-c1ccc([C@H](C)NC(=O)[C@@H]2C[C@@H](O)CN2C(=O)[C@@H](NC(=O)CN2CCC(CN3CCC(OC4CC(Oc5cc(N6C7CC[C@@H]6CN(c6cc(-c8ccccc8O)nnc6N)C7)ccn5)C4)CC3)CC2)C(C)(C)C)cc1 (stereo partly drawn) [compound 512, (2S,4R)-1-((2S)-2-(2-(4-((4-((1r,3r)-3-((4-(3-(3-amino-6-(2-hydroxyphenyl)pyridazin-4-yl)-3,8-diazabicyclo[3.2.1]octan-8-yl)pyridin-2-yl)oxy)cyclobutoxy)piperidin-1-yl)methyl)piperidin-1-yl)acetamido)-3,3-dimethylbutanoyl)-4-hydroxy-N-((S)-1-(4-(4-methylthiazol-5-yl)phenyl)ethyl)pyrrolidine-2-carboxamide]
- BRM Dmax (%) (% degraded, when tested at the top concentration of between 0.3 and 10 μM): A (A > 75)
- DC50 [4]: < 2.5 nM

SMILES: Cc1ncsc1-c1ccc([C@H](C)NC(=O)[C@@H]2C[C@@H](O)CN2C(=O)[C@H](c2cc(OCC[C@@H]3CCN(C[C@H]4C[C@H](Oc5cc(N6C7CCC6CN(c6cc(-c8ccccc8O)nnc6N)C7)ccn5)C4)[C@H](C)[C@@H]3C)no2)C(C)C)cc1 (single isomer, unassigned) [compound 583]
- DC50 [5]: > 30 nM

SMILES: Cc1cnn(C)c1-c1ccc([C@H](C)NC(=O)[C@@H]2C[C@@H](O)CN2C(=O)[C@@H](c2cc(OCCN3CCC(O[C@H]4C[C@H](Oc5cc(N6C7CCC6CN(c6cc(-c8ccccc8O)nnc6N)C7)ccn5)C4)CC3)no2)C(C)C)cc1 [compound 295, (2S,4R)-1-((2R)-2-(3-(2-(4-((1r,3R)-3-((4-(3-(3-amino-6-(2-hydroxyphenyl)pyridazin-4-yl)-3,8-diazabicyclo[3.2.1]octan-8-yl)pyridin-2-yl)oxy)cyclobutoxy)piperidin-1-yl)ethoxy)isoxazol-5-yl)-3-methylbutanoyl)-N-((S)-1-(4-(1,4-dimethyl-1H-pyrazol-5-yl)phenyl)ethyl)-4-hydroxypyrrolidine-2-carboxamide]
- DC50 [1]: < 2.5 nM
- Dmax [6]: > 75%

SMILES: Cc1ncsc1-c1ccc(CNC(=O)[C@@H]2C[C@@H](O)CN2C(=O)[C@@H](NC(=O)COCCOCCOCCOCCOCCOc2cc(N3[C@@H]4CC[C@H]3CN(c3cc(-c5ccccc5O)nnc3N)C4)ccn2)C(C)(C)C)cc1 [compound 9, (2S,4R)-1-((S)-20-((4-((1R,5S)-3-(3-amino-6-(2-hydroxyphenyl)pyridazin-4-yl)-3,8-diazabicyclo[3.2.1]octan-8-yl)pyridin-2-yl)oxy)-2-(tert-butyl)-4-oxo-6,9,12,15,18-pentaoxa-3-azaicosanoyl)-4-hydroxy-N-(4-(4-methylthiazol-5-yl)benzyl)pyrrolidine-2-carboxamide]
- DC50 [1]: 2.5 to 10 nM
- Dmax [2]: > 75%

SMILES: Cc1ncsc1-c1ccc([C@H](C)NC(=O)[C@@H]2C[C@@H](O)CN2C(=O)[C@@H](c2cc(OCCN3CCC(O[C@H]4C[C@H](Oc5cc(N6C7CCC6CN(c6cc(-c8cc(F)ccc8O)nnc6N)C7)ccn5)C4)CC3)no2)C(C)C)cc1 [compound 502, (2S,4R)-1-((2R)-2-(3-(2-(4-((1r,3R)-3-((4-(3-(3-amino-6-(5-fluoro-2-hydroxyphenyl)pyridazin-4-yl)-3,8-diazabicyclo[3.2.1]octan-8-yl)pyridin-2-yl)oxy)cyclobutoxy)piperidin-1-yl)ethoxy)isoxazol-5-yl)-3-methylbutanoyl)-4-hydroxy-N-((S)-1-(4-(4-methylthiazol-5-yl)phenyl)ethyl)pyrrolidine-2-carboxamide]
- DC50 [4]: < 2.5 nM
- Dmax (SW1573, % degraded, when tested at the top concentration of between 0.3 and 10 μM, read-out: BRM Dmax (%)): > 75%

SMILES: Cc1ncsc1-c1ccc(C2(NC(=O)[C@@H]3C[C@@H](O)CN3C(=O)[C@H](c3cc(OCCN4CCN(CCOc5cc(N6C7CCC6CN(c6cc(-c8ccccc8O)nnc6N)C7)ccn5)CC4)no3)C(C)C)CN(C)C2)cc1 [compound 228, (2S,4R)-1-((2S)-2-(3-(2-(4-(2-((4-(3-(3-amino-6-(2-hydroxyphenyl)pyridazin-4-yl)-3,8-diazabicyclo[3.2.1]octan-8-yl)pyridin-2-yl)oxy)ethyl)piperazin-1-yl)ethoxy)isoxazol-5-yl)-3-methylbutanoyl)-4-hydroxy-N-(1-methyl-3-(4-(4-methylthiazol-5-yl)phenyl)azetidin-3-yl)pyrrolidine-2-carboxamide]
- DC50 [1]: > 30 nM

SMILES: Cc1ncsc1-c1ccc([C@H](C)NC(=O)[C@@H]2C[C@@H](O)CN2C(=O)[C@H](c2cc(N3CCC(OC4CCN([C@H]5C[C@H](CN6CCOC7(CCN(c8cc(-c9ccccc9O)nnc8N)CC7)C6)C5)CC4)CC3)no2)C(C)C)cc1 [compound 615, (2S,4R)-1-((S)-2-(3-(4-((1-((1r,3S)-3-((9-(3-amino-6-(2-hydroxyphenyl)pyridazin-4-yl)-1-oxa-4,9-diazaspiro[5.5]undecan-4-yl)methyl)cyclobutyl)piperidin-4-yl)oxy)piperidin-1-yl)isoxazol-5-yl)-3-methylbutanoyl)-4-hydroxy-N-((S)-1-(4-(4-methylthiazol-5-yl)phenyl)ethyl)pyrrolidine-2-carboxamide]
- DC50 [5]: > 30 nM

SMILES: Cc1ncsc1-c1ccc([C@H](C)NC(=O)[C@@H]2C[C@@H](O)CN2C(=O)[C@H](c2cc(OCCn3cc(C(C)n4cc(-c5cc(-c6ccccc6O)nnc5N)cn4)ccc3=O)no2)C(C)C)cc1 (stereo partly drawn) [compound 157, (2S,4R)-1-((2S)-2-(3-(2-(5-(1-(4-(3-amino-6-(2-hydroxyphenyl)pyridazin-4-yl)-1H-pyrazol-1-yl)ethyl)-2-oxopyridin-1(2H)-yl)ethoxy)isoxazol-5-yl)-3-methylbutanoyl)-4-hydroxy-N-((S)-1-(4-(4-methylthiazol-5-yl)phenyl)ethyl)pyrrolidine-2-carboxamide]
- DC50 [1]: 10 to 30 nM
- Dmax [6]: > 75%
